PubChem BioAssay (NCI)
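Where inhibition never reached the appropriate level, the endpoint shown equals the highest concentration tested. Otherwise, values were interpolated linearly from a five-concentration, 48-hour dose response in 96-well plates. TGI: concentration producing complete growth inhibition.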

Tests used:
Test in all cases: inhibition of tumour cell growth, NCI panel, 48 h
EKVX NSCLC = system: EKVX NSCLC
HCT-15 colon = system: HCT-15 colon
IGROV1 ovarian = system: IGROV1 ovarian
KM12 colon = system: KM12 colon
M14 melanoma = system: M14 melanoma
OVCAR-3 ovarian = system: OVCAR-3 ovarian
OVCAR-8 ovarian = system: OVCAR-8 ovarian
SF-295 CNS = system: SF-295 CNS
SK-MEL-5 melanoma = system: SK-MEL-5 melanoma
SN12C renal = system: SN12C renal
SNB-19 CNS = system: SNB-19 CNS
SW-620 colon = system: SW-620 colon
UACC-257 melanoma = system: UACC-257 melanoma

Compound	TGI (EKVX NSCLC)	TGI (HCT-15 colon)	TGI (IGROV1 ovarian)	TGI (KM12 colon)	TGI (M14 melanoma)	TGI (OVCAR-3 ovarian)	TGI (OVCAR-8 ovarian)	TGI (SF-295 CNS)	TGI (SK-MEL-5 melanoma)	TGI (SN12C renal)	TGI (SNB-19 CNS)	TGI (SW-620 colon)	TGI (UACC-257 melanoma)
O=C(O)CSCC(=O)O	> 100 µM	> 100 µM	> 100 µM	> 100 µM	> 100 µM	> 100 µM	> 100 µM	> 100 µM	> 100 µM	> 100 µM	> 100 µM	> 100 µM	> 100 µM
CCOC(=O)c1sc2nc(SC)nc3c2c1NCN3c1ccc2c(c1)OCCCO2	> 100 µM	> 100 µM	> 100 µM	> 100 µM	> 100 µM	93.9 µM	> 100 µM	5.1 µM	> 100 µM	> 100 µM	> 100 µM	> 100 µM	> 100 µM
O=C(O)C(O)Cc1ccccn1 (stereo not drawn)	> 100 µM	> 100 µM	> 100 µM	> 100 µM	> 100 µM	> 100 µM	> 100 µM	> 100 µM	> 100 µM	–	> 100 µM	> 100 µM	> 100 µM
C(=C\c1nccs1)/c1cccc(/C=C/c2nccs2)n1	> 50 µM	> 50 µM	> 50 µM	> 50 µM	> 50 µM	> 50 µM	> 50 µM	> 50 µM	> 50 µM	> 50 µM	> 50 µM	> 50 µM	> 50 µM
CC(=O)OC1COC(n2nc(/C=C/c3ccc(Cl)cc3)c(=O)n(/N=C/c3ccccc3)c2=S)C(OC(C)=O)C1OC(C)=O (stereo not drawn)	> 100 µM	> 100 µM	> 100 µM	> 100 µM	> 100 µM	> 100 µM	> 100 µM	> 100 µM	> 100 µM	> 100 µM	> 100 µM	> 100 µM	> 100 µM
FC(F)(F)C(C1=NC(C(F)(F)F)(C(F)(F)F)N=C(N2CCOCC2)O1)C(F)(F)F	61.3 µM	> 100 µM	57.1 µM	> 100 µM	60.5 µM	> 100 µM	47.3 µM	44.6 µM	28.4 µM	36.1 µM	> 100 µM	41.9 µM	75.3 µM
COc1ccc2oc(=O)cc(C)c2c1	> 100 µM	–	> 100 µM	> 100 µM	> 100 µM	> 100 µM	> 100 µM	> 100 µM	> 100 µM	> 100 µM	> 100 µM	> 100 µM	> 100 µM
Cc1nc(Nc2ccc(F)cc2)c2sc(=S)n(-c3ccc(F)cc3)c2n1	26.2 µM	13.8 µM	22.4 µM	28.2 µM	15.5 µM	30.9 µM	35.9 µM	27.3 µM	27.7 µM	27 µM	27.8 µM	21.4 µM	26.2 µM
COc1ccc(C2C3CCc4ccccc4C3=NN2S(=O)(=O)c2ccc(Cl)cc2)cc1 (stereo not drawn)	> 100 µM	4.52 µM	52.9 µM	> 100 µM	> 100 µM	> 100 µM	> 100 µM	50.9 µM	> 100 µM	> 100 µM	> 100 µM	> 100 µM	> 100 µM
C=CCOC1OC(CS(=O)(=O)O)C(O)C(O)C1O (stereo not drawn)	–	> 100 µM	> 100 µM	> 100 µM	> 100 µM	> 100 µM	> 100 µM	> 100 µM	> 100 µM	> 100 µM	> 100 µM	> 100 µM	> 100 µM
COc1cccc(Nc2nc(-c3cccs3)nc3ccc(Br)cc23)c1	> 100 µM	> 100 µM	> 100 µM	> 100 µM	> 100 µM	> 100 µM	> 100 µM	> 100 µM	> 100 µM	> 100 µM	78.7 µM	> 100 µM	> 100 µM
O=C(c1ccccc1)[C@H]1Nc2ccc(Cl)cc2[C@H]2OCCC[C@@H]12	50.4 µM	43.8 µM	> 100 µM	34.1 µM	31.9 µM	30.7 µM	41.9 µM	32.8 µM	–	37.5 µM	90.3 µM	39.1 µM	–
COc1ccccc1N1C(Cl)C(=O)C1c1c[nH]c2ccccc12 (stereo not drawn)	> 100 µM	–	> 100 µM	> 100 µM	> 100 µM	> 100 µM	> 100 µM	> 100 µM	> 100 µM	> 100 µM	> 100 µM	> 100 µM	> 100 µM
